≈ marks a conversion by molar mass, not a printed value.
Legend:
[1] = system: PC-3; test: cells; conditions: Homo sapiens, PC-3, 48 h; for CC50: read-out: LC50
[2] = system: CAKI-1; test: cells; conditions: Homo sapiens, CAKI-1, 48 h; for CC50: read-out: LC50
[3] = system: K-562; test: cells; conditions: Homo sapiens, K562, 48 h; for GI50: K-562, 48 h; for CC50: read-out: LC50
[4] = system: UACC-62; test: cells; conditions: Homo sapiens, UACC-62, 48 h; for CC50: read-out: LC50
[5] = system: N. gonorrhoeae ATCC 49226; test: MIC on GC agar plates; type: cell-based, Neisseria gonorrhoeae; conditions: Neisseria gonorrhoeae, ATCC49226, read-out: MIC
In short: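 Agar dilution was used: GC agar with 1% IsoVitaleX containing increasing compound concentrations was inoculated with 1 × 10^4 CFU. The MIC was taken as the lowest concentration inhibiting growth, with growth confirmed by oxidase test, in duplicate across at least two independent experiments.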

[6] = system: NCI/ADR-RES; test: cells; conditions: Homo sapiens, 48 h; for CC50: read-out: LC50
[7] = system: HS 578T; test: cells; conditions: Homo sapiens, 48 h; for CC50: read-out: LC50
[8] = system: BT-549; test: cells; conditions: Homo sapiens, BT-549, 48 h; for CC50: read-out: LC50
[9] = system: ACHN; test: cells; conditions: Homo sapiens, 48 h; for CC50: read-out: LC50
[10] = system: IGROV1; test: cells; conditions: Homo sapiens, IGROV-1, 48 h; for CC50: read-out: LC50
[11] = system: CCRF-CEM; test: cells; conditions: Homo sapiens, 48 h; for CC50: read-out: LC50
[12] = system: OVCAR-8; test: cells; conditions: Homo sapiens, OVCAR-8, 48 h; for CC50: read-out: LC50
[13] = system: OVCAR-3; test: cells; conditions: Homo sapiens, OVCAR-3, 48 h; for CC50: read-out: LC50
[14] = system: HCC-2998; test: cells; conditions: Homo sapiens, HCC 2998, 48 h; for CC50: read-out: LC50
[15] = system: SNB-19; test: cells; conditions: Homo sapiens, SNB-19, 48 h; for CC50: read-out: LC50
[16] = system: MDA-MB-435; test: cells; conditions: Homo sapiens, MDA-MB-435, 48 h; for CC50: read-out: LC50
[17] = system: MALME-3M; test: cells; conditions: Homo sapiens, 48 h; for CC50: read-out: LC50
[18] = system: SK-MEL-28; test: cells; conditions: Homo sapiens, SK-MEL-28, 48 h; for CC50: read-out: LC50
[19] = system: HOP-62; test: cells; conditions: Homo sapiens, HOP-62, 48 h; for CC50: read-out: LC50
[20] = system: RXF 393; test: cells; conditions: Homo sapiens, RXF 393, 48 h; for CC50: read-out: LC50
[21] = system: SF-268; test: cells; conditions: Homo sapiens, SF-268, 48 h; for CC50: read-out: LC50
[22] = system: M. tuberculosis ATCC 27294; test: Antitubercular broth microdilution MIC; type: cell-based; conditions: Mycobacterium tuberculosis; M. tuberculosis ATCC 27294 (H37Rv); read-out: Minimum inhibitory concentration (MIC)
[23] = system: SW-620; test: cells; conditions: Homo sapiens, SW-620, 48 h; for CC50: read-out: LC50
[24] = Hemolytic activity, spectrophotometric; type: cell-based, human; conditions: human, human red blood cells (huRBC), 5% hematocrit, 200 μg/mL, 37 °C
[25] = system: EKVX; test: cells; conditions: Homo sapiens, 48 h; for CC50: read-out: LC50
[26] = system: NCI-H322M; test: cells; conditions: Homo sapiens, 48 h; for CC50: read-out: LC50

CN(C)c1nc(NCCNS(=O)(=O)c2ccc(C3=Nc4c(N)nc(N)nc4NC(c4ccc(Cl)cc4)C3)cc2)nc(Nc2ccc(F)cc2)n1 (centres unmarked) [31e] showed a GI50 [1] of 3.44 µM, a CC50 [1] greater than 100 µM and a GI50 [2] of 8.07 µM. The CC50 [2] was greater than 100 µM, the GI50 [3] was 3.08 µM and the CC50 [3] was greater than 100 µM. For the same compound, the GI50 [4] was 6.46 µM, the CC50 [4] was greater than 100 µM and the MIC [5] was 0.5 µg/mL (≈ 0.696 µM). It also gave a GI50 [6] greater than 100 µM, a CC50 [6] greater than 100 µM and a GI50 [7] of 7.15 µM. The CC50 [7] was greater than 100 µM, the GI50 [8] was 3.96 µM and the CC50 [8] was 28.7 µM. It also gave a GI50 [9] greater than 100 µM, a CC50 [9] greater than 100 µM and a GI50 [10] of 9.96 µM. For the same compound, the CC50 [10] was greater than 100 µM, the GI50 [11] was 2.92 µM and the CC50 [11] was greater than 100 µM. The GI50 [12] was greater than 100 µM, the CC50 [12] was greater than 100 µM and the GI50 [13] was 7.45 µM. It also gave a CC50 [13] greater than 100 µM, a GI50 [14] of 3.14 µM and a CC50 [14] of 18.4 µM. For the same compound, the GI50 [15] was 5.67 µM, the CC50 [15] was greater than 100 µM and the GI50 [16] was 5.17 µM. For the same compound, the CC50 [16] was greater than 100 µM, the GI50 [17] was 3.86 µM and the CC50 [17] was 19.2 µM. For the same compound, the GI50 [18] was 8.22 µM, the CC50 [18] was greater than 100 µM and the GI50 [19] was greater than 100 µM. The CC50 [19] was greater than 100 µM, the GI50 [20] was 2.27 µM and the CC50 [20] was 8.75 µM. For the same compound, the GI50 [21] was 5.74 µM, the CC50 [21] was greater than 100 µM and the MIC [22] was 1.2 µg/mL (≈ 1.67 µM). It also gave a GI50 [23] of 5.95 µM, a CC50 [23] greater than 100 µM and a hemolysis at 24 h, 200 µg/mL [24] of 2.3%. The GI50 [25] was 5.05 µM, the CC50 [25] was greater than 100 µM and the GI50 [26] was greater than 100 µM. It also gave a CC50 [26] greater than 100 µM.
Work on CN(C)c1nc(NCCNS(=O)(=O)c2ccc(C3=Nc4c(N)nc(N)nc4NC(c4ccccc4)C3)cc2)nc(Nc2ccc(F)cc2)n1 (centres unmarked) [31a] yielded a GI50 [1] of 3.84 µM, a CC50 [1] greater than 100 µM and a GI50 [2] of 9.73 µM. It also gave a CC50 [2] greater than 100 µM, a GI50 [3] of 4.33 µM and a CC50 [3] greater than 100 µM. The GI50 [4] was 31.5 µM, the CC50 [4] was greater than 100 µM and the MIC [5] was 8 µg/mL (≈ 11.7 µM). It also gave a GI50 [6] greater than 100 µM, a CC50 [6] greater than 100 µM and a GI50 [7] of 6.43 µM. The CC50 [7] was greater than 100 µM, the GI50 [8] was 8.82 µM and the CC50 [8] was greater than 100 µM. The GI50 [9] was greater than 100 µM, the CC50 [9] was greater than 100 µM and the GI50 [10] was 5.76 µM. For the same compound, the CC50 [10] was greater than 100 µM, the GI50 [11] was 4.02 µM and the CC50 [11] was greater than 100 µM. The GI50 [12] was 61.4 µM, the CC50 [12] was greater than 100 µM and the GI50 [13] was 69.3 µM. It also gave a CC50 [13] greater than 100 µM, a GI50 [14] of 11.7 µM and a CC50 [14] greater than 100 µM. It also gave a GI50 [15] of 21.8 µM, a CC50 [15] greater than 100 µM and a GI50 [16] of 15 µM. For the same compound, the CC50 [16] was greater than 100 µM, the GI50 [17] was 7.34 µM and the CC50 [17] was greater than 100 µM. For the same compound, the GI50 [18] was greater than 100 µM, the CC50 [18] was greater than 100 µM and the GI50 [19] was 99.7 µM. It also gave a CC50 [19] greater than 100 µM, a GI50 [20] of 2.55 µM and a CC50 [20] of 8.95 µM. For the same compound, the GI50 [21] was 9.85 µM, the CC50 [21] was greater than 100 µM and the MIC [22] was 1.2 µg/mL (≈ 1.75 µM). For the same compound, the GI50 [23] was 40.4 µM, the CC50 [23] was greater than 100 µM and the hemolysis at 24 h, 200 µg/mL [24] was 1%. The GI50 [25] was 6.65 µM, the CC50 [25] was greater than 100 µM and the GI50 [26] was greater than 100 µM. It also gave a CC50 [26] greater than 100 µM.
